Experimental findings from patent publication US7491794B2, “Macrocyclic compounds as inhibitors of viral replication” (Intermune, Inc., priority 2003, dated 2009) are described below.

The target in assay [1] is T1, NS3-NS4 protease (Hepatitis C virus genotype 1a, UniProt P27958).
T1 construct: Recombinant E. coli or Baculovirus full-length NS3 was diluted to 3.33 μM with assay buffer; made in house; host or cells: E. coli or baculovirus (BV) system
Nature of the assay: NS3-NS4 protease assay / NS3 inhibition assay, Section C. Type of assay: biochemical. To be noted: read-out: NS3-NS4 IC50. The protocol:
NS3 complex formation with NS4A-2.
Recombinant E. coli or Baculovirus full-length NS3 was diluted to 3.33 μM with assay buffer and transfered material to an eppendorf tube and place in water bath in 4° C. refrigerator. The appropriate amount of NS4A-2 to 8.3 mM in assay buffer was added to equal the volume of NS3 in step 2.1.1 (conversion factor −3.8 mg/272 μL assay buffer). The material was transferred to an eppendorf tube and place in water bath in 4° C. refrigerator.
After equilibration to 4° C., equal volumes of NS3 and NS4A-2 solutions were combined in an eppendorf tube, mix gently with a manual pipettor, and incubate mixture for 15 minutes in the 4° C. water bath. Final concentrations in the mixture are […] NS3, 4.15 mM NS4A-2 (2485-fold molar excess NS4A-2).
After 15 minutes at 4° C., the NS3/NS4A-2 eppendorf tube was removed and place it in a room temperature water bath for 10 minutes. NS3/NS4A-2 was alliquoted at appropriate volumes and store at −80° C. (E. coli NS3 run at 2 nM in assay, aliquot at 25 μL. BV NS3 run at 3 nM in assay, aliquot at 30 μL).
Step 2.2.5. Sample compounds were dissolved to 10 mM in DMSO then diluted to 2.5 mM (1:4) in DMSO.
Step 2.2.6. The E. coli. NS3/NS4A-2 was diluted to 4 nM NS3 (1:417.5 of […] stock−18 μL 1.67 μM stock+7497 μL assay buffer). The BV NS3/NS4A-2 was diluted to 6 nM NS3 (1:278.3 of 1.67 μM stock−24 μL 1.67 μM stock+6655 μL assay buffer).
Step 2.2.7. Using the manual multichannel pipettor, and being careful not to introduce bubbles into the plate, 50 μL assay buffer were added to wells A01-H01 of a black Costar 96-well polypropylene storage plate.
Step 2.2.8. Using the manual multichannel pipettor, and being careful not to introduce bubbles into the plate, 50 μL of diluted NS3/NS4A-2 from step 2.2.6 were added to wells A02-H12 of plate in step 2.2.7.
Step 2.2.9. Using the manual multichannel pipettor, and being careful not to introduce bubbles into the plate, 25 μL of the wells in drug dilution plate in step 2.2.5 were transferred to corresponding wells in assay plate in step 2.2.8. The tips on multichannel pipettor were changed for each row of compounds transferred.
Step 2.2.10. Using the manual multichannel pipettor, and being careful not to introduce bubbles into the plate, the contents of the wells from the assay plate in step 2.2.9 were mixed by aspirating and dispensing 35 μL of the 75 μL in each well five times. The tips on the multichannel pipettor were changed for each row of wells mixed.
Step 2.2.11. The plate was covered with a polystyrene plate lid, and the plate from step 2.2.10 containing NS3 protease and sample compounds was pre-incubated 10 minutes at room temperature.
While the plate from step 2.2.11 was pre-incubating, the RETS1 substrate was diluted in a 15 mL polypropylene centrifuge tube. The RETS1 substrate was diluted to 8 μM (1:80.75 of 646 μM stock−65 μL 646 μM stock+5184 μL assay buffer).
After the plate in step 2.2.11 was done pre-incubating, and using the manual multichannel, 25 μL of substrate were added to all wells on the plate. The contents of the wells of plate were quickly mixed, as in step 2.2.10, but mixing 65 μL of the 100 μL in the wells.
The plate was read in kinetic mode on the Molecular Devices SpectraMax Gemini XS plate reader. Reader settings: Read time: 30 minutes, Interval: 36 seconds, Reads: 51, Excitation λ: 335 nm, Emission λ: 495 nm, cutoff: 475 nm, Automix: off, Calibrate: once, PMT: high, Reads/well: 6, Vmax pts: 21 or 28/51 depending on length of linearity of reaction.
IC50s were determined using a four parameter curve fit equation, and converted to Ki's using the following Km's:
where Ki=IC50/(1+[S]/Km))

The test system of assay [2] is HCV sub-genomic replicon, GS4.3. Nature of the assay: Quantitation by ELISA of NPTII in the HCV sub-genomic replicon, GS4.3, Section C. Format: cell-based. The conditions noted are these: Hepatitis C virus; GS4.3 cells, 72 h incubation; read-out: EC50. An excerpt: Quantitation by ELISA of the selectable marker protein, Neomycin phosphotransferase II (NPTII) in the HCV Sub-Genomic Replicon, GS4.3
The HCV sub-genomic replicon (1377/NS3-3′, accession No. AJ242652), stably maintained in HuH-7 hepatoma cells, was created by Lohmann et al. Science 285: 110-113 (1999). The replicon-containing cell culture, designated GS4.3, was obtained from Dr. Christoph Seeger of the Institute for Cancer Research, Fox Chase Cancer Center, Philadelphia, Pa.
GS4.3 cells were maintained at 37° C., 5% CO2, in DMEM (Gibco 11965-092) supplemented with L-glutamine 200 mM (100×) (Gibco25030-081), non-essential amino acids (NEAA)(Biowhittaker 13-114E), heat-inactivated (HI) Fetal Bovine Serum(FBS)(Hyclone SH3007.03) and 750 μg/ml geneticin (G418)(Gibco 10131-035). Cells were sub-divided 1:3 or 4 every 2-3 days.
24 h prior to the assay, GS4.3 cells were collected, counted, and plated in 96-well plates (Costar 3585) at 7500 cells/well in 100 μl standard maintenance medium (above) and incubated in the conditions above. To initiate the assay, culture medium was removed, cells were washed once with PBS (Gibco 10010-023) and 90 μl Assay Medium (DMEM, L-glutamine, NEAA, 10% HI FBS, no G418) was added. Inhibitors were made as a 10× stock in Assay Medium, (3-fold dilutions from 10 μM to […] final concentration, final DMSO concentration 1%), 10 μl were added to duplicate wells, plates were rocked to mix, and incubated as above for 72 h.
An NPTII Elisa kit was obtained from AGDIA, Inc. (Compound direct ELISA test system for Neomycin Phosphotransferase II, PSP 73000/4800). Manufacturer's instructions were followed, with some modifications. 10×PEB-1 lysis buffer was made up to include 500 μM PMSF (Sigma P7626, 50 mM stock in isopropanol). After 72 h incubation, cells were washed once with PBS and 150 μl PEB-1 with PMSF was added per well. Plates were agitated vigorously for 15 minutes, room temperature, then frozen at −70° C. Plates were thawed, lysates were mixed thoroughly, and 100 μl were applied to an NPTII Elisa plate. A standard curve was made. Lysate from DMSO-treated control cells was pooled, serially diluted with PEB-1 with PMSF, and applied to duplicate wells of the ELISA plate, in a range of initial lysate amount of 150u1-2.5 ul. In addition, 100 μl buffer alone was applied in duplicate as a blank. Plates were sealed and gently agitated at room temperature for 2 h. Following capture incubation, the plates were washed 5×300 μl with PBS-T (0.5% Tween-20, PBS-T was supplied in the ELISA kit). For detection, a 1× dilution of enzyme conjugate diluent MRS-2 (5×) was made in PBS-T, into which 1:100 dilutions of enzyme conjugates A and B were added, as per instructions. Plates were resealed, and incubated with agitation, covered, room temperature, for 2 h. The washing was then repeated and 100 μl of room temperature TMB substrate was added. After approximately 30 minutes incubation (room temperature, agitation, covered), the reaction was stopped with 50 μl 3M sulfuric acid. Plates were read at 450 nm on a Molecular Devices Versamax plate reader.
Inhibitor effect was expressed as a percentage of DMSO-treated control signal, and inhibition curves were calculated using a 4-parameter equation: y=A+((B−A)/(1+((C/x)^D))), where C is half-maximal activity or EC50.
(In general: An ELISA detects its analyte on a solid surface through an enzyme-linked reagent.)

The IC50 is the point on the concentration scale where inhibition reaches its midpoint. The term EC50 denotes the concentration giving half of the maximal effect.

T1 sequence (P27958 1027-1657): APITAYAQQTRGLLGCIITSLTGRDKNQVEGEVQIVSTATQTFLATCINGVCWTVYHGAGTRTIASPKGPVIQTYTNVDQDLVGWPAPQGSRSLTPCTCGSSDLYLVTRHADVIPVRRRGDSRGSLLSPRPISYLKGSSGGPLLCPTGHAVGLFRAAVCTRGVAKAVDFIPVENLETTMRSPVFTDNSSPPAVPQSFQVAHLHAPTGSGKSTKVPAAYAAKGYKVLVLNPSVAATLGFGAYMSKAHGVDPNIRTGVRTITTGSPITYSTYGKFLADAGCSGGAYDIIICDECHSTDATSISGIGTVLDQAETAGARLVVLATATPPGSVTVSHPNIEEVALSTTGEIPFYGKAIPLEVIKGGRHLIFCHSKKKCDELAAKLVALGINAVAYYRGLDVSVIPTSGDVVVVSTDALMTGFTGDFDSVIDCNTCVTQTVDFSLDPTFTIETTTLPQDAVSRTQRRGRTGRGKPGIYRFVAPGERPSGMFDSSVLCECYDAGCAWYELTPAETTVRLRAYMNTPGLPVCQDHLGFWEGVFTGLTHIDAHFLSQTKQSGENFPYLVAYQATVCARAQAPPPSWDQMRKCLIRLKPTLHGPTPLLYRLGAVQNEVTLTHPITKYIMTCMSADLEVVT

In the case of `CC(C)(C)OC(=O)N[C@H]1CCCCC/C=C\[C@@H]2C[C@@]2(C(=O)NS(=O)(=O)Nc2ccc(Cl)cc2)NC(=O)[C@@H]2C[C@@H](OC(=O)N3Cc4ccccc4C3)CN2C1=O` [Compound 128, (1S,4R,6S,14S,18R)-1,3-Dihydro-isoindole-2-carboxylic acid 14-tert-butoxycarbonylamino-4-(4-chlorophenylaminosulfonyl-aminocarbonyl)-2,15-dioxo-3,16-diaza-tricyclo[14.3.0.0^4,6]nonadec-7-en-18-yl ester], the IC50 in assay [1] was below 100 nM. In addition, in assay [2], the EC50 was below 100 nM.

In the case of `CN1CCN(S(=O)(=O)NC(=O)[C@@]23C[C@H]2/C=C\CCCCC[C@H](NC(=O)OC(C)(C)C)C(=O)N2C[C@H](OC(=O)N4Cc5ccccc5C4)C[C@H]2C(=O)N3)CC1` [Compound 118, (1S,4R,6S,14S,18R)-1,3-Dihydro-isoindole-2-carboxylic acid 14-tert-butoxycarbonylamino-4-(4-methylpiperazine-1-sulfonyl-aminocarbonyl)-2,15-dioxo-3,16-diaza-tricyclo[14.3.0.0^4,6]nonadec-7-en-18-yl ester], the IC50 in assay [1] was below 100 nM. Besides, the EC50 in assay [2] was below 100 nM.

Take `CC(C)(C)OC(=O)N[C@H]1CCCCC/C=C\[C@@H]2C[C@@]2(C(=O)NS(N)(=O)=O)NC(=O)[C@@H]2C[C@@H](OC(=O)N3Cc4ccccc4C3)CN2C1=O` [Compound 122, (1S,4R,6S,14S,18R)-1,3-Dihydro-isoindole-2-carboxylic acid 14-tert-butoxycarbonylamino-4-(aminosulfonyl-aminocarbonyl)-2,15-dioxo-3,16-diaza-tricyclo[14.3.0.0^4,6]nonadec-7-en-18-yl ester]: the IC50 in assay [1] is below 100 nM. Moreover, in assay [2], the EC50 is below 100 nM.

Regarding `Cc1ccc(NS(=O)(=O)NC(=O)[C@@]23C[C@H]2/C=C\CCCCC[C@H](NC(=O)OC(C)(C)C)C(=O)N2C[C@H](OC(=O)N4Cc5ccccc5C4)C[C@H]2C(=O)N3)cc1` [Compound 130, (1S,4R,6S,14S,18R)-1,3-Dihydro-isoindole-2-carboxylic acid 14-tert-butoxycarbonylamino-4-(4-methylphenylaminosulfonyl-aminocarbonyl)-2,15-dioxo-3,16-diaza-tricyclo[14.3.0.0^4,6]nonadec-7-en-18-yl ester], the 50% inhibitory concentration (IC50) in assay [1] was below 100 nM. In addition, in assay [2], the concentration giving a half-maximal response (EC50) was below 100 nM.

As to `CC(C)(C)OC(=O)N[C@H]1CCCCC/C=C\[C@@H]2C[C@@]2(C(=O)NS(=O)(=O)N2CCCC2)NC(=O)[C@@H]2C[C@@H](OC(=O)N3Cc4ccccc4C3)CN2C1=O` [Compound 103, (1S,4R,6S,14S,18R)-1,3-Dihydro-isoindole-2-carboxylic acid 14-tert-butoxycarbonylamino-4-(pyrrolidinosulfonyl-aminocarbonyl)-2,15-dioxo-3,16-diaza-tricyclo[14.3.0.0^4,6]nonadec-7-en-18-yl ester], the half-inhibitory concentration (IC50) in assay [1] was below 100 nM. Besides, the concentration giving a half-maximal response (EC50) in assay [2] is below 100 nM.

Turning to `CC(C)(C)OC(=O)N[C@H]1CCCCC/C=C\[C@@H]2C[C@@]2(C(=O)NS(=O)(=O)NC2CC2)NC(=O)C2C[C@@H](OC(=O)N3Cc4cccc(F)c4C3)CN2C1=O` (some centres unmarked) [Compound 121], in assay [1], the IC50 was below 100 nM. Moreover, in assay [2], the EC50 is below 100 nM.

Regarding `CC(C)(C)OC(=O)N[C@H]1CCCCC/C=C\[C@@H]2C[C@@]2(C(=O)NS(=O)(=O)NC2CCC2)NC(=O)[C@@H]2C[C@@H](OC(=O)N3Cc4ccccc4C3)CN2C1=O` [Compound 133, (1S,4R,6S,14S,18R)-1,3-Dihydro-isoindole-2-carboxylic acid 14-tert-butoxycarbonylamino-4-(cyclobutylaminosulfonyl-aminocarbonyl)-2,15-dioxo-3,16-diaza-tricyclo[14.3.0.0^4,6]nonadec-7-en-18-yl ester], in assay [1], the half-inhibitory concentration (IC50) was below 100 nM. The 50% effective concentration (EC50) in assay [2] was below 100 nM.
